PubChem BioAssay AID330 (DTP/NCI, 2004)
Values joined by “and” are separate entries in the source; they are usually repeats but may differ in a detail not shown here. Equal entries are not always repeated. Toxic doses and inconclusive results are not listed.

Test system: P388 leukemia ip, CD2F1 mice, survival T/C
Assay: NCI In Vivo Anticancer Drug Screen. Data for tumor model P388 Leukemia (intraperitoneal) in CD2F1 (CDF1) mice
Conditions: endpoint: median survival time, higher = longer survival
Method in brief: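 Mice carrying the transplanted tumor received test compound or vehicle. Survival was recorded in each group, and the value is the treated-group measurement divided by that of the vehicle-treated control group.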

[1] = dose: 50.0 mg/kg/injection, schedule: Q01DX009 (ip), vehicle: saline
[2] = dose: 100.0 mg/kg/injection, schedule: Q01DX009 (ip), vehicle: saline
[3] = dose: 200.0 mg/kg/injection, schedule: Q01DX009 (ip), vehicle: saline
[4] = dose: 60.0 mg/kg/injection, schedule: Q01DX005 (ip), vehicle: saline with Tween-80

CCCCCCCCCCCCC(=O)N1CCOCC1
T/C (dose: 100.0 mg/kg/injection, schedule: Q04DX003 (ip), vehicle: saline with Tween-80): 100 % of control
T/C (dose: 200.0 mg/kg/injection, schedule: Q04DX003 (ip), vehicle: saline with Tween-80): 95 % of control
T/C (dose: 400.0 mg/kg/injection, schedule: Q04DX003 (ip), vehicle: saline with Tween-80): 110 % of control

N=C(N)c1ccc2cc(/C=C/c3cc4ccc(C(=N)N)cc4o3)oc2c1
T/C (dose: 100.0 mg/kg/injection, schedule: Q04DX003 (ip), vehicle: suspension in saline): 112 % of control
T/C (dose: 200.0 mg/kg/injection, schedule: Q04DX003 (ip), vehicle: suspension in saline): 120 % of control

O=C1C(c2ccccc2)SC(=S)N1c1ccccc1 (centres undefined)
T/C [1]: 105 % of control
T/C [2]: 92 % of control
T/C [3]: 89 % of control

COc1cc2c(c(OC)c1OC)-c1cc3c(cc1CC(COC(C)=O)C(COC(C)=O)C2)OCO3 (centres undefined)
T/C (dose: 6.25 mg/kg/injection, schedule: Q04DX002 (ip), vehicle: saline with Tween-80): 103 % of control
T/C (dose: 12.5 mg/kg/injection, schedule: Q04DX002 (ip), vehicle: saline with Tween-80): 101 % of control
T/C (dose: 25.0 mg/kg/injection, schedule: Q04DX002 (ip), vehicle: saline with Tween-80): 100 % of control

CC(C)(NC(=O)c1cc(Cl)c2ccccc2c1O)C(=O)O
T/C (dose: 50.0 mg/kg/injection, schedule: Q01DX009 (ip), vehicle: saline + alcohol): 97 % of control
T/C (dose: 100.0 mg/kg/injection, schedule: Q01DX009 (ip), vehicle: saline + alcohol): 94 % of control
T/C (dose: 200.0 mg/kg/injection, schedule: Q01DX009 (ip), vehicle: saline + alcohol): 103 % of control

Nc1[nH]c(=O)ncc1-c1cccc(Cl)c1
T/C (dose: 15.0 mg/kg/injection, schedule: Q01DX005 (ip), vehicle: saline with Tween-80): 103 % of control
T/C (dose: 30.0 mg/kg/injection, schedule: Q01DX005 (ip), vehicle: saline with Tween-80): 104 % of control
T/C [4]: 106 % of control and 96 % of control

COc1cc(/C=C/C=C(C(=O)O)C(=O)O)ccc1OCc1ccccc1
T/C (dose: 50.0 mg/kg/injection, schedule: Q01DX005 (ip), vehicle: Klucel (hydroxypropylcellulose) (HPC)): 100 % of control
T/C (dose: 100.0 mg/kg/injection, schedule: Q01DX005 (ip), vehicle: Klucel (hydroxypropylcellulose) (HPC)): 98 % of control
T/C (dose: 200.0 mg/kg/injection, schedule: Q01DX005 (ip), vehicle: Klucel (hydroxypropylcellulose) (HPC)): 92 % of control

N=C(N)SCCN1C(=O)NC(c2ccccc2)(c2ccccc2)C1=O
T/C (dose: 25.0 mg/kg/injection, schedule: Q04DX003 (ip), vehicle: Klucel (hydroxypropylcellulose) (HPC)): 114 % of control
T/C (dose: 50.0 mg/kg/injection, schedule: Q04DX003 (ip), vehicle: Klucel (hydroxypropylcellulose) (HPC)): 114 % of control
T/C (dose: 100.0 mg/kg/injection, schedule: Q04DX003 (ip), vehicle: Klucel (hydroxypropylcellulose) (HPC)): 96 % of control
T/C (dose: 200.0 mg/kg/injection, schedule: Q04DX003 (ip), vehicle: Klucel (hydroxypropylcellulose) (HPC)): 114 % of control

Cc1onc(-c2ccccc2)c1C(=O)OCCOc1ccc(C(F)(F)F)cc1[N+](=O)[O-]
T/C [4]: 99 % of control
T/C (dose: 120.0 mg/kg/injection, schedule: Q01DX005 (ip), vehicle: saline with Tween-80): 90 % of control
T/C (dose: 240.0 mg/kg/injection, schedule: Q01DX005 (ip), vehicle: saline with Tween-80): 90 % of control

CCCCCCCCOC(=O)CP(=O)(O)O
T/C (dose: 50.0 mg/kg/injection, schedule: Q01DX009 (ip), vehicle: saline with Tween-80): 100 % of control
T/C (dose: 100.0 mg/kg/injection, schedule: Q01DX009 (ip), vehicle: saline with Tween-80): 96 % of control

N#CCCNc1ccc(F)cc1
T/C [1]: 100 % of control
T/C [2]: 109 % of control
T/C [3]: 104 % of control

O=C(CNC1=NCCN1)Nc1ccc(NC(=O)c2ccc(C(=O)Nc3ccc(NC(=O)CNC4=NCCN4)cc3)cc2)cc1
T/C (dose: 50.0 mg/kg/injection, schedule: Q01DX005 (ip), vehicle: saline with Tween-80): 118 % of control and 124 % of control
T/C (dose: 200.0 mg/kg/injection, schedule: Q01DX005 (ip), vehicle: saline with Tween-80): 189 % of control
T/C (dose: 400.0 mg/kg/injection, schedule: Q01DX005 (ip), vehicle: saline with Tween-80): 96 % of control

Cc1ccccc1C(=O)N1C(=O)Cc2ccccc21
T/C (dose: 100.0 mg/kg/injection, schedule: Q01DX001 (ip), vehicle: Klucel (hydroxypropylcellulose) (HPC)): 97 % of control
T/C (dose: 200.0 mg/kg/injection, schedule: Q01DX001 (ip), vehicle: Klucel (hydroxypropylcellulose) (HPC)): 91 % of control
T/C (dose: 400.0 mg/kg/injection, schedule: Q01DX001 (ip), vehicle: Klucel (hydroxypropylcellulose) (HPC)): 90 % of control

COc1ccc2c(c1)N(S(=O)(=O)c1ccc(C)cc1)CC1=C2CCP1(C)=O (centres undefined)
T/C (dose: 100.0 mg/kg/injection, schedule: Q01DX001 (ip), vehicle: saline): 111 % of control
T/C (dose: 200.0 mg/kg/injection, schedule: Q01DX001 (ip), vehicle: saline): 111 % of control
T/C (dose: 400.0 mg/kg/injection, schedule: Q01DX001 (ip), vehicle: saline): 112 % of control

CN(C)NC(=S)SCCC(=O)O
T/C (dose: 50.0 mg/kg/injection, schedule: Q01DX009 (ip), vehicle: Klucel (hydroxypropylcellulose) (HPC)): 99 % of control
T/C (dose: 100.0 mg/kg/injection, schedule: Q01DX009 (ip), vehicle: Klucel (hydroxypropylcellulose) (HPC)): 96 % of control
T/C (dose: 200.0 mg/kg/injection, schedule: Q01DX009 (ip), vehicle: Klucel (hydroxypropylcellulose) (HPC)): 92 % of control
